These results are taken from US20090252814A1, “USE OF XENON FOR ORGAN PROTECTION” (priority 2005, published 2009).

One assay has as its system HIF-1α. In words: HIF-1α expression in the kidney after exposure to xenon (western blot). The format is in vivo, C57BL/6J mice. The conditions noted are these: adult mice, 75% xenon 2 h by inhalation, kidneys harvested 0-24 h after. On the procedure:
Studies were performed on adult 8- to 12-wk-old C57BL/6J mice (Jackson Labs, Bar Harbor, Me.) that were fed a standard laboratory diet. All procedures were approved by the Home Office.
The mice were exposed to 75% xenon for two hours. The xenon gas was administered to the mice by inhalation. The kidneys of said mice were then harvested as described below between 0-24 hours after exposure to the xenon gas.
Once sacrificed, the kidneys were harvested and frozen at −80° C. […] Protein concentration in the supernatant was determined by DC (detergent-compatible) protein assay (Bio-Rad, Herts, UK), based on the Lowry method. […]
After washing in TBS-T the membrane was incubated with the appropriate goat-derived horseradish peroxidase-conjugated secondary antibody at room temperature for 1½ hours to detect the primary antibodies. The immunoreactive bands were visualised with the enhanced chemiluminescence system and detected on X-ray film. The results were quantified by densitometry as an x-fold increase relative to the control without xenon—the amount of protein applied was normalised by the densitometry of the tubulin (which was unaltered by the intervention itself). […]

The subject of the next assay is brain. Description: Cortical infarction in neonatal rat brain, xenon and cooling. Also on record: Total area of infraction: unit not given here. Format: in vivo, Sprague Dawley rats. On the procedure:
Sprague Dawley, 7 day neonatal rats were used. All procedures were approved by the Home Office.
The neonatal rats were exposed to: • (i) 20% xenon alone for 2 hours; • (ii) 35° C. hypothermia for 90 minutes; or • (iii) Hypothermia (35° C.) for 90 minutes before, 1 hour later, 20% xenon for 2 hours.
The gas was administered by gas inhalation.
The brains of said rats were then harvested at a set time after exposure to the xenon gas. A total of 11 rats were examined for each treatment group.
The brains were assessed for cortical infarction in the affected hemisphere.
The “intervention” rats under went an ischaemic injury to the brain.

A further assay relates to PHD2. In words: PHD2 expression in adult mice brains (western blot). The format is in vivo, C57BL/6J mice. To be noted: 75% xenon and 25% oxygen 2 h, harvested 0-48 h after. On the procedure:
Studies were performed on 8- to 12-wk-old C57BL/6J mice (Jackson Labs, Bar Harbor, Me.) that were fed a standard laboratory diet. All procedures were approved by the Home Office.
The mice were exposed to 75% xenon and 25% oxygen for two hours. The xenon gas was administered to the mice by inhalation. The brains of said adult mice were then harvested as described below between 0-48 hours after exposure to the xenon gas.
The tissues were homogenised and western blots of adult mice brain samples were carried out as described in Example 1.
The primary antibody was monoclonal mouse anti-PHD2 antibody.
Background: In western blotting, separated proteins are transferred to a membrane and probed.

The subject of a further assay is NMDA receptor. The conditions noted are these: 80% xenon, cultured hippocampal neurons; cited from earlier work.
The test system of the next assay is rabbit heart. To be noted: xenon during early reperfusion, rabbit heart (Preckel et al 2000); cited from earlier work.

`[Xe]` [xenon]: in the assay on HIF-1α, the “HIF-1α expression in the kidneys” value is given as “time-dependent increase”. The “Total area of infraction” value is on record as 88.3 (±4.1) in the assay with brain (Control rats, 20% xenon alone column); 92.7 (±6.7) in the assay with brain (Control rats, combination column); 85.3 (±8.9) in the assay with brain (Intervention rats (ischaemic injury), 20% xenon alone for 2 hours); 74.1 (±7.8) with brain (Intervention rats (ischaemic injury), combination: hypothermia 35° C. 90 min, 1 hour later 20% xenon 2 hours). Also, the “interaction of xenon and cooling on area of infraction” value in the assay with brain (hypothermia followed by xenon, administered asynchronously) was “synergy”. Also, the “expression of PHD2” value in the assay with PHD2 is reported as “time-dependent reduction”. The “reduction of NMDA-activated currents” value in the assay with NMDA receptor is “up to 60%”. Moreover, the “infarct size after regional ischaemia” value in the assay on rabbit heart is listed as “reduces infarct size”.
